From ChEMBL document CHEMBL5042524, “Discovery of Novel Histone Deacetylase 6 (HDAC6) Inhibitors with Enhanced Antitumor Immunity of Anti-PD-L1 Immunotherapy in Melanoma” (J Med Chem, 2022)

Legend:
[1] = biological target: Histone deacetylase; experiment: Inhibition of HDAC in human HeLa nuclear extracts using fluorometric substrate incubated for 30 mins by fluorescence plate reader analysis; type: cell-based
[2] = biological target: Histone deacetylase 3 (Homo sapiens, UniProt O15379); experiment: Inhibition of recombinant human His-tagged HDAC3 expressed in baculovirus insect cells using Ac-Leu-Gly-Lys (Ac)-AMC as substrate preincubated for 5 mins followed by substrate addition and measured after 30 mins by fluorescence microtiter plate reader assay
[3] = biological target: T1, Protein deacetylase HDAC6 (Homo sapiens, UniProt Q9UBN7); experiment: Inhibition of recombinant human N-terminal GST tagged HDAC6 expressed in baculovirus infected Sf9 insect cells using Ac-Leu-Gly-Lys (Ac)-AMC as substrate preincubated for 5 mins followed by substrate addition and measured after 30 mins by fluorescence microtiter plate reader assay
T1 sequence (Q9UBN7 whole entry): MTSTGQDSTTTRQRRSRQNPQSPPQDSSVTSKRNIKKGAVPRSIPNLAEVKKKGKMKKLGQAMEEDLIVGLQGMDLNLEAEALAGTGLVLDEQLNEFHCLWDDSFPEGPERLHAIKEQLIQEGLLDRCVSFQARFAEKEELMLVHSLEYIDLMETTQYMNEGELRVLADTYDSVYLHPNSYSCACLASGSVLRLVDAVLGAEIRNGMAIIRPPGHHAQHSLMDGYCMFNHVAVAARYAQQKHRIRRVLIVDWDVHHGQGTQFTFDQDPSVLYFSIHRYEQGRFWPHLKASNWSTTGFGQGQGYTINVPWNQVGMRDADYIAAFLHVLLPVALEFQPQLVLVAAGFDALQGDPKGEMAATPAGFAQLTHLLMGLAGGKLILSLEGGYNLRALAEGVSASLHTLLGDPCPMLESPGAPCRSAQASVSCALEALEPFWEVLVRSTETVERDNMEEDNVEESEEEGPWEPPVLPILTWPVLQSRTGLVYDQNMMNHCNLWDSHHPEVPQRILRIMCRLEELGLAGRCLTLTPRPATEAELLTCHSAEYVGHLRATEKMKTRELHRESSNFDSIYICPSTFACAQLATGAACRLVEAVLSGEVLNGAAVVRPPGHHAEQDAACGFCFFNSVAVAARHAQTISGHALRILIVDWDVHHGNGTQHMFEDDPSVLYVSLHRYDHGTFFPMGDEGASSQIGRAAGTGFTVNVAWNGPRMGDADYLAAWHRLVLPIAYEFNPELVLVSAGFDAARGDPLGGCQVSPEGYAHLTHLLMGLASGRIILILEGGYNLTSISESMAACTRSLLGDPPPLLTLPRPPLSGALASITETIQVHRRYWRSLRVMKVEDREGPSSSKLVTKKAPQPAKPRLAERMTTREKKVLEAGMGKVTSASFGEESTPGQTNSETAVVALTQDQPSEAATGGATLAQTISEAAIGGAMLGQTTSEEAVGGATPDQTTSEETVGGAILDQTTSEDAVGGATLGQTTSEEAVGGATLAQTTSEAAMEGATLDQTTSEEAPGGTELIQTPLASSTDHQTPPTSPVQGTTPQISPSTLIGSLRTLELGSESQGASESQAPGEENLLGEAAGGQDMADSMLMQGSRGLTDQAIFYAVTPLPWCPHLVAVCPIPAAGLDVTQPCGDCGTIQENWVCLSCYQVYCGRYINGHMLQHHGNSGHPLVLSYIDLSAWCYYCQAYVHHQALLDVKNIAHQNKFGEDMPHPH

[4] = Cytotoxicity against human Jurkat cells assessed as reduction in cell viability incubated for 72 hrs by CCK-8 assay
[5] = Antiproliferative activity against human YCC3/7 cells assessed as cell growth inhibition; type: functional, cell-based
[6] = test system: B16-F10; experiment: cells; type: functional, cell-based; settings: Mus musculus, B16-F10, 48 h
Description: Antiproliferative activity against mouse B16-F10 cells assessed as inhibition of cell proliferation measured after 48 hrs by MTT assay

[7] = biological target: Histone deacetylase 1 (Homo sapiens, UniProt Q13547); experiment: Inhibition of recombinant human HDAC1 expressed in baculovirus expression system using Ac-Leu-Gly-Lys (Ac)-AMC as substrate preincubated for 5 mins followed by substrate addition and measured after 30 mins by fluorescence microtiter plate reader assay
[8] = test system: A549; experiment: cells; type: functional, cell-based; settings: Homo sapiens, A549, 48 h
Description: Antiproliferative activity against human A549 cells assessed as inhibition of cell proliferation measured after 48 hrs by MTT assay

[9] = Antiproliferative activity against human YCC-11 cells assessed as cell growth inhibition; type: functional, cell-based
[10] = biological target: T2, Histone deacetylase 8 (Homo sapiens, UniProt Q9BY41); experiment: Inhibition of full length recombinant human C-terminal His tagged HDAC8 expressed in baculovirus infected Sf9 insect cells using Ac-Leu-GlyLys (Tfa)-AMC as substrate preincubated for 5 mins followed by substrate addition and measured after 30 mins by fluorescence microtiter plate reader assay
T2 sequence (Q9BY41 whole entry): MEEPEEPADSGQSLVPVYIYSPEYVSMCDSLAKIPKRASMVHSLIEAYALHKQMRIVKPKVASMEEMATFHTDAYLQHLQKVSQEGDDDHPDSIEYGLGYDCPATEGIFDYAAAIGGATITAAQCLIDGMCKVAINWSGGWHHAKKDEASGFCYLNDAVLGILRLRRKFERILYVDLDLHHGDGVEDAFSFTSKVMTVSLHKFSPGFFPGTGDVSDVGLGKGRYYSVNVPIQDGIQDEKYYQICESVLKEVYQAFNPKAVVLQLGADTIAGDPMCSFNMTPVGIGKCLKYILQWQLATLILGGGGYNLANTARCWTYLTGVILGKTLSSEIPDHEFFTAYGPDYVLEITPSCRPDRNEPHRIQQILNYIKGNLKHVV

[11] = test system: MCF7; experiment: cells; type: functional, cell-based; settings: Homo sapiens, MCF7, 48 h
Description: Antiproliferative activity against human MCF7 cells assessed as inhibition of cell proliferation measured after 48 hrs by MTT assay

[12] = test system: HCT-116; experiment: cells; type: functional, cell-based; settings: Homo sapiens, HCT-116, 48 h
Description: Antiproliferative activity against human HCT-116 cells assessed as inhibition of cell proliferation measured after 48 hrs by MTT assay

Chain of Histone deacetylase 1 (Q13547 whole entry): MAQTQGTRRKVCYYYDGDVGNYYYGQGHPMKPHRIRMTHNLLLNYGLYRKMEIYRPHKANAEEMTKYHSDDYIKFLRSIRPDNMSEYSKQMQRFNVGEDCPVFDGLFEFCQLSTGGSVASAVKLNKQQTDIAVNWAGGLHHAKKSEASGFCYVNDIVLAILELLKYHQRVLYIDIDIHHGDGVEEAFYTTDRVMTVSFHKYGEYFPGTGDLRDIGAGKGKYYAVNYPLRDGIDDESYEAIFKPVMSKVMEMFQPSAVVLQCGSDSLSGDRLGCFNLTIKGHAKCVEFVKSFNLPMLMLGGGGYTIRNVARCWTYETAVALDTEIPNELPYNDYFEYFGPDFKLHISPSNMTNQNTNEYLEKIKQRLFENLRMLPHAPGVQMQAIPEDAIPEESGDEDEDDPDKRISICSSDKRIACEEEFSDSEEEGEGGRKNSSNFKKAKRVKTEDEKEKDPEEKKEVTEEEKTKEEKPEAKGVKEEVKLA
Chain of Histone deacetylase 3 (O15379 whole entry): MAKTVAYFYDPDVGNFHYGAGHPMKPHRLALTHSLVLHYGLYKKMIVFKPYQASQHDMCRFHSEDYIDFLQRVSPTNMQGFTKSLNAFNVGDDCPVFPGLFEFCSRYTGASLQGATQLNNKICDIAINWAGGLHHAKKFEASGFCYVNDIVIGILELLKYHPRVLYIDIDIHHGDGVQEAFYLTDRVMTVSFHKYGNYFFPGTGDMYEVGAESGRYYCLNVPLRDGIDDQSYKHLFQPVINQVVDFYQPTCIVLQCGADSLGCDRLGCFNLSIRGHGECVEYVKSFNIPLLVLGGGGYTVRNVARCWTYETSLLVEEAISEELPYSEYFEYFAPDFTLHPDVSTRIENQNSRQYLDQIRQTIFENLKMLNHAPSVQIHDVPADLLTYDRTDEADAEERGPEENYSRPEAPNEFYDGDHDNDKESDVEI

Row | SMILES | IC50 [1] [µM] | IC50 [2] [µM] | IC50 [3] [µM] | IC50 at 72 h [4] [µM] | IC50 [5] [µM] | IC50 [6] [µM] | IC50 [7] [µM] | IC50 [8] [µM] | IC50 [9] [µM] | IC50 [10] [µM] | IC50 [11] [µM] | IC50 [12] [µM]
1 | O=C(/C=C/c1cnc(-c2ccc3c(c2)OCO3)s1)NO | 0.89 | – | – | – | – | – | – | – | – | – | – | –
2 | COc1cc(OC)cc(-c2ncc(/C=C/C(=O)NO)s2)c1 | 0.72 | > 10 | 0.94 | – | – | – | – | – | – | – | – | –
3 | O=C(CCCCCCNC(=O)c1cnc(-c2ccc(F)cc2)s1)NO | 1.02 | – | – | – | – | – | – | – | – | – | – | –
4 | COc1ccccc1-c1ncc(C(=O)NCCCCCCC(=O)NO)s1 | 0.27 | 6.49 | 0.65 | 0.35 | 6.68 | > 10 | 5.13 | 5.04 | 2.69 | 10.2 | 1.93 | 0.91
5 | Nc1ccccc1NC(=O)/C=C/c1cnc(-c2ccc3cc[nH]c3c2)s1 | 0.63 | 2.03 | > 10 | – | – | – | – | – | – | – | – | –
6 | Nc1ccccc1NC(=O)c1ccc(CNC(=O)OCc2cccnc2)cc1 [ENTINOSTAT] | – | – | – | – | 12.9 | – | – | – | 5.53 | – | – | –
7 | COc1ccc(-c2ncc(/C=C/C(=O)Nc3ccccc3N)s2)cc1OC | 0.53 | 2.22 | 8.81 | 0.34 | 6.28 | 6.37 | 10.4 | 5.24 | 4.59 | 11.5 | 3.05 | 1.8
8 | COc1cccc(-c2ncc(/C=C/C(=O)Nc3ccccc3N)s2)c1 | 0.58 | 4.87 | 9.53 | 0.56 | 9.91 | > 10 | 13.5 | 7.64 | 8.56 | 13.4 | 6.05 | 3.91
9 | COc1ccc(-c2ncc(/C=C/C(=O)NO)s2)cc1 | 0.13 | 5.11 | 0.91 | 0.74 | 4.21 | > 10 | 4.34 | > 10 | 3.07 | 3.74 | 5.36 | 4.12
10 | COc1cc(OC)cc(-c2ncc(C(=O)NCCCCCCC(=O)NO)s2)c1 | 0.79 | 9.09 | 0.76 | – | – | – | – | – | – | – | – | –
11 | O=C(/C=C/c1cnc(-c2ccc(N3CCOCC3)cc2)s1)NO | 0.55 | > 10 | 0.97 | – | – | – | – | – | – | – | – | –
12 | O=C(/C=C/c1cnc(-c2ccc(F)cc2F)s1)NO | 0.94 | – | – | – | – | – | – | – | – | – | – | –
13 | COc1ccc(-c2ncc(/C=C/C(=O)Nc3ccccc3N)s2)cc1 | 0.71 | 1.79 | > 10 | – | – | – | – | – | – | – | – | –
14 | COc1ccc(-c2ncc(/C=C/C(=O)Nc3ccccc3N)s2)c(OC)c1OC | 0.63 | 1.55 | > 10 | – | – | – | – | – | – | – | – | –
15 | Cc1cccc(-c2ncc(/C=C/C(=O)Nc3ccccc3N)s2)c1 | 0.81 | – | – | – | – | – | – | – | – | – | – | –
16 | COc1ccc(-c2ncc(C(=O)NCCCCCCC(=O)NO)s2)cc1 | 0.71 | > 10 | 0.61 | – | – | – | – | – | – | – | – | –

Row | SMILES | IC50 [1] [µM] | IC50 [2] [µM] | IC50 [3] [µM] | IC50 at 72 h [4] [µM] | IC50 [5] [µM] | IC50 [6] [µM] | IC50 [7] [µM] | IC50 [8] [µM] | IC50 [9] [µM] | IC50 [10] [µM] | IC50 [11] [µM] | IC50 [12] [µM]
17 | O=C(CCCCCCNC(=O)c1cnc(-c2ccc(Cl)cc2)s1)NO | 0.96 | – | – | – | – | – | – | – | – | – | – | –
18 | COc1cc(-c2ncc(/C=C/C(=O)NO)s2)cc(OC)c1OC | 0.1 | 7.66 | 2.1 | 0.36 | 5.18 | 5.09 | 3.21 | 3.08 | 4.8 | 2.22 | 1.3 | 1.82
19 | COc1cc(-c2ncc(/C=C/C(=O)Nc3ccccc3N)s2)cc(OC)c1OC | 0.08 | 2.98 | 9.33 | 0.58 | 3.03 | 7.62 | 9.79 | > 10 | 1.65 | 14.2 | 2.54 | 1.65
20 | COc1ccc(-c2ncc(C(=O)NCCCCC(=O)NO)s2)c(OC)c1 | 0.69 | 9.91 | 0.62 | – | – | – | – | – | – | – | – | –
21 | COc1ccc(-c2ncc(/C=C/C(=O)NO)s2)c(OC)c1OC | 0.11 | 6.23 | 1.09 | 0.59 | 8.17 | > 10 | 5.03 | > 10 | 3.77 | 2.56 | 4.78 | 3.27
22 | O=C(CCCCCCNC(=O)c1cnc(-c2ccc(OC(F)(F)F)cc2)s1)NO | 0.7 | 8.07 | 0.71 | – | – | – | – | – | – | – | – | –
23 | COc1ccc(-c2ncc(C(=O)NCCCC(=O)NO)s2)c(OC)c1 | 0.73 | – | – | – | – | – | – | – | – | – | – | –
24 | CC(C)(C)OC(=O)Nc1ccc(-c2ncc(C(=O)NCCCCCCC(=O)NO)s2)cc1 | 0.29 | 5.88 | 0.067 | 1.34 | 10.1 | > 10 | 9.32 | > 10 | 2.09 | 5.22 | > 10 | 2.88
25 | COc1ccc(-c2ncc(C(=O)NCCCCCC(=O)NO)s2)c(OC)c1 | 0.35 | 12.4 | 0.076 | 1.72 | 8.73 | 2.94 | 11.2 | 6.71 | 6.52 | 19.8 | 2.81 | 2.19
26 | COc1cccc(-c2ncc(/C=C/C(=O)NO)s2)c1 | 0.66 | – | – | – | – | – | – | – | – | – | – | –
27 | Cc1ccc(-c2ncc(/C=C/C(=O)Nc3ccccc3N)s2)cc1 | 0.66 | 1.03 | > 10 | – | – | – | – | – | – | – | – | –
28 | COc1cc(-c2ncc(C(=O)NCCCCCCC(=O)NO)s2)cc(OC)c1OC | 0.67 | > 10 | 0.8 | – | – | – | – | – | – | – | – | –
29 | COc1cccc(-c2ncc(C(=O)NCCCCCCC(=O)NO)s2)c1 | 0.44 | 9.27 | 0.59 | 0.33 | 1.56 | 3.52 | 3.93 | 6.03 | 1.3 | 15.2 | 1.9 | 0.93
30 | O=C(CCCCCCNC(=O)c1cnc(-c2ccc(Oc3ccccc3)cc2)s1)NO | 0.8 | – | – | – | – | – | – | – | – | – | – | –
31 | O=C(/C=C/c1cnc(-c2ccc3c(c2)OCCO3)s1)NO | 0.68 | > 10 | 0.77 | – | – | – | – | – | – | – | – | –
